Data reported in patent US20110213143A1, “COMPOUND HAVING TAFIA INHIBITORY ACTIVITY” (TAISHO PHARMACEUTICAL CO., LTD., priority 2008, published 2011).
Structures can show the parent of a compound that is named as a salt.

molecular target: T1, TAFIa (Homo sapiens, UniProt Q96IY4); experiment: TAFIa inhibition test (Hip-Arg substrate, absorbance at 405 nm); type: biochemical; settings: 40 minutes at room temperature, read-out: IC50 (TAFIa inhibitory activity)
T1 construct: purchased Enzyme Research Laboratories
T1 sequence (Q96IY4 115-423): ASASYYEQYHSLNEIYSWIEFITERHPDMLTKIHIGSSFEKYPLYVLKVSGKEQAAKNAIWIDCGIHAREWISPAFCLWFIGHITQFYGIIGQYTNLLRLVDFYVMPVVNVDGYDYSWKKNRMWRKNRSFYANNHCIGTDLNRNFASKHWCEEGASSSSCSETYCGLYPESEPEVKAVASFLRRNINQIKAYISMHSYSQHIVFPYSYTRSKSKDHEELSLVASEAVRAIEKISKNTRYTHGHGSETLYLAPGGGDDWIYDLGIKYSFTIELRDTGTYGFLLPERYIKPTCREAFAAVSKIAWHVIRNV
Description: Test 1 [TAFIa Inhibition Test]
Compounds of the present invention were measured for their TAFIa inhibitory activity as follows based on the method described in Thromb. Haemost. 371 (1988).
(a) Preparation of TAFIa Solution
To 450 μl of TAFI (the product of Enzyme Research Laboratories whose concentration was adjusted to 18 μg/ml with buffer A: 100 mM Tris-HCl buffer, pH 7.4), 45 μl of a thrombomodulin solution (a rabbit lung derived thrombomodulin produced by American Diagnostia whose concentration was adjusted to 1 μg/ml with buffer B: 50 mM Tris-HCl, pH 7.5, containing 0.15 M NaCl) and 45 μl of a thrombin solution (a freeze-dried human plasma derived thrombin produced by Sigma and dissolved in water to have a concentration of 30 μ/ml) were added and the mixture was left to stand for 25 minutes at room temperature.
(b) Method of Measuring TAFIa Inhibitory Activity
To wells on a 96-well microplate, the above-prepared TAFIa solution, a test compound, and a substrate solution (Hip-Arg produced by Sigma and dissolved in buffer C of 100 mM Tris-HCl buffer, pH 8.3, to have a concentration of 3.6 mM) were added in respective amounts of 20 μl/well, 10 μl/well, and 70 μl/well. The individual components were mixed well and the reaction was carried out for 40 minutes at room temperature.
Subsequently, a color former (1% cyanuric chloride in 1,4-dioxane) was added in an amount of 50 μl to each well and the plate was left to stand for 3 minutes at room temperature; then, the absorbance at 405 nm was measured with a microplate reader (Spectramax M2 of Molecular Devices). With the absorbance in the absence of a test compound minus the absorbance in the absence of an enzyme being taken as 100%, the concentration of the compound that inhibited 50% of the reaction (IC50) was calculated from the absorbance in the presence of the test compound minus the absorbance in the absence of the enzyme.
For several compounds of the present invention, the above test was conducted and on the basis of the results of measurements, TAFIa inhibitory activity was calculated to give the results shown in Table 2.

Row | IC50 | SMILES
1 | 0.095 µM | NCCCC(Cc1ncn2c1CCc1ccccc1-2)C(=O)O (stereo not drawn) [Example 1, 5-amino-2-(4,5-dihydroimidazo[1,5-a]quinolin-3-ylmethyl)pentanoic acid]
2 | 0.063 µM | NCCC[C@@H](Cc1ncn2c1CCc1ccccc1-2)C(=O)O [Example 2, (2S)-5-amino-2-(4,5-dihydroimidazo[1,5-a]quinolin-3-ylmethyl)pentanoic acid]
3 | 0.86 µM | NCCC[C@H](Cc1ncn2c1CCc1ccccc1-2)C(=O)O [Example 3, (2R)-5-amino-2-(4,5-dihydroimidazo[1,5-a]quinolin-3-ylmethyl)pentanoic acid]
4 | 3.3 µM | NCCCC(Cc1ncn2c1CCCc1ccccc1-2)C(=O)O (stereo not drawn) [Example 4, 5-amino-2-(5,6-dihydro-4H-imidazo[1,5-a] [1]benzazepin-3-ylmethyl)pentanoic acid]
5 | 1.1 µM | NCCCC(Cc1ncn2c1COc1ccccc1-2)C(=O)O (stereo not drawn) [Example 5, 5-amino-2-(4H-imidazo[5,1-c][1,4]benzoxazin-3-ylmethyl)pentanoic acid]
6 | 1.6 µM | NCCCC(Cc1ncn2c1CCc1ccncc1-2)C(=O)O (stereo not drawn) [Example 6, 5-amino-2-(4,5-dihydroimidazo[1,5-a] [1,7]naphthyridin-3-ylmethyl)pentanoic acid]
7 | 6.4 µM | Cc1cccc2c1-n1cnc(CC(CCCN)C(=O)O)c1CC2 (stereo not drawn) [Example 7, 5-amino-2-[(9-methyl-4,5-dihydroimidazo[1,5-a]quinolin-3-yl)methyl]pentanoic acid dihydrochloride]
8 | 0.27 µM | CCc1cccc2c1CCc1c(CC(CCCN)C(=O)O)ncn1-2 (stereo not drawn) [Example 8, 5-amino-2-[(6-ethyl-4,5-dihydroimidazo[1,5-a]quinolin-3-yl)methyl]pentanoic acid]
9 | 0.19 µM | NCCCC(Cc1ncn2c1CCc1c(Cl)cccc1-2)C(=O)O (stereo not drawn) [Example 9, 5-amino-2-[(6-chloro-4,5-dihydroimidazo[1,5-a]quinolin-3-yl)methyl]pentanoic acid]
10 | 0.15 µM | Cc1cccc2c1CCc1c(CC(CCCN)C(=O)O)ncn1-2 (stereo not drawn) [Example 10, 5-amino-2-[(6-methyl-4,5-dihydroimidazo[1,5-a]quinolin-3-yl)methyl]pentanoic acid]
11 | 0.061 µM | Cc1ccc2c(c1)CCc1c(CC(CCCN)C(=O)O)ncn1-2 (stereo not drawn) [Example 11, 5-amino-2-[(7-methyl-4,5-dihydroimidazo[1,5-a]quinolin-3-yl)methyl]pentanoic acid dihydrochloride]
12 | 1.8 µM | Cc1ccc2c(c1)-n1cnc(CC(CCCN)C(=O)O)c1CC2 (stereo not drawn) [Example 12, 5-amino-2-[(8-methyl-4,5-dihydroimidazo[1,5-a]quinolin-3-yl)methyl]pentanoic acid]
13 | 3.3 µM | NCCCCC(C(=O)O)c1ncn2c1CCc1ccccc1-2 (stereo not drawn) [Example 13, 6-amino-2-(4,5-dihydroimidazo[1,5-a]quinolin-3-yl)hexanoic acid]
14 | 0.11 µM | CCOc1ccc2c(c1)CCc1c(CC(CCCN)C(=O)O)ncn1-2 (stereo not drawn) [Example 14, 5-amino-2-[(7-ethoxy-4,5-dihydroimidazo[1,5-a]quinolin-3-yl)methyl]pentanoic acid]
15 | 0.14 µM | NCCCC(Cc1ncn2c1CCc1cc(-c3ccccc3)ccc1-2)C(=O)O (stereo not drawn) [Example 15, 5-amino-2-[(7-phenyl-4,5-dihydroimidazo[1,5-a]quinolin-3-yl)methyl]pentanoic acid dihydrochloride]
16 | 0.18 µM | NCCCC(Cc1ncn2c1CCc1cc(OC3CCCCC3)ccc1-2)C(=O)O (stereo not drawn) [Example 16, 5-amino-2-{[7-(cyclohexyloxy)-4,5-dihydroimidazo[1,5-a]quinolin-3-yl)methyl]pentanoic acid]
17 | 0.067 µM | CCCc1ccc2c(c1)CCc1c(CC(CCCN)C(=O)O)ncn1-2 (stereo not drawn) [Example 17, 5-amino-2-[(7-propyl-4,5-dihydroimidazo[1,5-a]quinolin-3-yl)methyl]pentanoic acid dihydrochloride]
18 | 0.63 µM | NCCCC(Cc1ncn2c1CNc1ccccc1-2)C(=O)O (stereo not drawn) [Example 18, 5-amino-2-(4,5-dihydroimidazo[1,5-a]quinoxalin-3-ylmethyl)pentanoic acid]
19 | 0.58 µM | NCCCC(Cc1ncn2c1CCc1ncccc1-2)C(=O)O (stereo not drawn) [Example 19, 5-amino-2-(4,5-dihydroimidazo[1,5-a] [1,5]naphthyridin-3-ylmethyl)pentanoic acid]
20 | 2.3 µM | CNCCCC(Cc1ncn2c1CCc1ccccc1-2)C(=O)O (stereo not drawn) [Example 20, 2-(4,5-dihydroimidazo[1,5-a]quinolin-3-ylmethyl)-5-(methylamino)pentanoic acid]
21 | 1.4 µM | NCCCC(Cc1ncn2c1Cc1ccccc1C2)C(=O)O (stereo not drawn) [Example 21, 5-amino-2-(5,10-dihydroimidazo[1,5-b]isoquinolin-1-ylmethyl)pentanoic acid]
22 | 5.1 µM | Nc1cc(C(Cc2ncn3c2CCc2ccccc2-3)C(=O)O)ccn1 (stereo not drawn) [Example 22, 2-(2-aminopyridin-4-yl)-3-(4,5-dihydroimidazo[1,5-a]quinolin-3-yl)propanoic acid dihydrochloride]
23 | 4.4 µM | NCCCC(Cc1ncn2c1CCc1ccccc1-2)c1nnn[nH]1 (stereo not drawn) [Example 23, 5-(4,5-dihydroimidazo[1,5-a]quinolin-3-yl)-4-(1H-tetrazol-5-yl)pentan-1-amine]
24 | 0.043 µM | NCCC[C@@H](Cc1ncn2c1CCc1cc(CCC3CCCCC3)ccc1-2)C(=O)O [Example 24, (25)-5-amino-2-{[7-(2-cyclohexylethyl)-4,5-dihydroimidazo[1,5-a]quinolin-3-yl]methyl}pentanoic acid dihydrochloride]
25 | 0.028 µM | NCCC[C@@H](Cc1ncn2c1CCc1cc(C3CCCCC3)ccc1-2)C(=O)O [Example 25, (2S)-5-amino-2-[(7-cyclohexyl-4,5-dihydroimidazo[1,5-a]quinolin-3-yl)methyl]pentanoic acid dihydrochloride]
26 | 0.072 µM | NCCC[C@@H](Cc1ncn2c1CCc1cc(F)ccc1-2)C(=O)O [Example 26, (2S)-5-amino-2-[(7-fluoro-4,5-dihydroimidazo[1,5-a]quinolin-3-yl]methyl}pentanoic acid dihydrochloride]
27 | 0.41 µM | NCCCC(Cc1ncn2c1CCc1cc(C(F)(F)F)ccc1-2)C(=O)O (stereo not drawn) [Example 27, 5-amino-2-{[7-(trifluoromethyl)-4,5-dihydroimidazo[1,5-a]quinolin-3-yl]methyl}pentanoic acid dihydrochloride]
28 | 0.033 µM | CC(C)c1ccc2c(c1)CCc1c(C[C@H](CCCN)C(=O)O)ncn1-2 [Example 28, (2S)-5-amino-2-[(7-isopropyl-4,5-dihydroimidazo[1,5-a]quinolin-3-yl)methyl]pentanoic acid dihydrochloride]
29 | 0.025 µM | Cc1ccc2c(c1)CCc1c(C[C@H](CCCN)C(=O)O)ncn1-2 [Example 29, (2S)-5-amino-2-[(7-methyl-4,5-dihydroimidazo[1,5-a]quinolin-3-yl)methyl]pentanoic acid dihydrochloride]
30 | 0.028 µM | CCCc1ccc2c(c1)CCc1c(C[C@H](CCCN)C(=O)O)ncn1-2 [Example 30, (S)-5-amino-2-((7-propyl-4,5-dihydroimidazo[1,5-a]quinolin-3-yl)methyl)pentanoic acid dihydrochloride]
